Assay results reported in US20240025862A1, “SUBSTITUTED N-PHENYLURACILS AND SALTS THEREOF, AND USE THEREOF AS HERBICIDAL ACTIVE SUBSTANCES” (Bayer Aktiengesellschaft, priority 2020, published 2024).

Assays:
Format in all cases: in vivo
[1] = test system: Alopecurus myosuroides (ALOMY); assay: Post-emergence herbicidal action, greenhouse pot test (also comparative test C); details: Alopecurus myosuroides, 504 h, rated visually after about 3 weeks vs untreated controls, 100% = plants have died; for pest or weed control at 5 g/ha: read-out: Post-emergence action at 5 g/ha against ALOMY in %; for pest or weed control at 20 g/ha: read-out: Post-emergence action at 20 g/ha against ALOMY in %
In short: (§1)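 Greenhouse pot plants in sandy loam were sprayed post-emergence at the one-leaf stage (2–3 weeks after sowing) with WP or EC formulations plus 0.5% additive at 600 l/ha water. Activity was rated visually after about 3 weeks versus untreated controls (100% = dead, 0% = like control); rates were 20 g/ha or less, and 5 g/ha or less in the comparative test.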

[2] = test system: Matricaria inodora (MATIN); assay: as above; details: Tripleurospermum inodorum, 504 h, read-out: Post-emergence action against MATIN in %; for pest or weed control at 5 g/ha: dosage 5 g/ha; for pest or weed control at 20 g/ha: dosage 20 g/ha
In short: as §1

Setaria viridis (SETVI) = assay: as above; details: Setaria viridis, 504 h; for pest or weed control at 20 g/ha: read-out: Post-emergence action against SETVI; for pest or weed control at 1.25 g/ha: dosage 1.25 g/ha; for pest or weed control at 1.25 g/ha / pest or weed control at 5 g/ha: read-out: Post-emergence action against SETVI in %; for pest or weed control at 5 g/ha: dosage 5 g/ha
In short: as §1

[3] = test system: Echinochloa crus-galli (ECHCG); assay: as above; details: for pest or weed control at 5 g/ha / pest or weed control at 20 g/ha: Echinochloa crus-galli, 504 h, read-out: Post-emergence action against ECHCG in %; for pest or weed control at 5 g/ha: dosage 5 g/ha; for pest or weed control at 20 g/ha: dosage 20 g/ha
In short: as §1

Avena fatua (AVEFA) = assay: Post-emergence herbicidal action, greenhouse pot test; details: Avena fatua, 504 h, 20 g/ha, rated visually after about 3 weeks vs untreated controls, 100% = plants have died, read-out: Post-emergence action at 20 g/ha against AVEFA in %
In short: (§2)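 Activity was scored by eye about 3 weeks after treatment against untreated plants, where 100% means dead plants and 0% means no difference. Plants at the one-leaf stage received a foliar spray of WP or EC formulations in water plus 0.5% additive (600 l/ha, up to 20 g/ha). Plants were grown in sandy loam pots in a greenhouse for 2–3 weeks before spraying.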

[4] = test system: Polygonum convolvulus (POLCO); assay: as above; details: Fallopia convolvulus, 504 h, read-out: Post-emergence action against POLCO in %; for pest or weed control at 5 g/ha: dosage 5 g/ha; for pest or weed control at 20 g/ha: dosage 20 g/ha
In short: as §2

Viola tricolor (VIOTR) = assay: as above; details: Viola tricolor, 504 h, read-out: Post-emergence action against VIOTR
In short: as §2

[5] = test system: Abutilon theophrasti (ABUTH); assay: as above; details: Abutilon theophrasti, 504 h, rated visually after about 3 weeks vs untreated controls, 100% = plants have died; for pest or weed control at 1.25 g/ha: read-out: Post-emergence action at 1.25 g/ha against ABUTH in %; for pest or weed control at 5 g/ha: read-out: Post-emergence action at 5 g/ha against ABUTH in %; for pest or weed control at 20 g/ha: read-out: Post-emergence action at 20 g/ha against ABUTH in %
In short: as §2

Lolium rigidum (LOLRI) = assay: as above; details: Lolium rigidum, 504 h, dosage 20 g/ha, read-out: Post-emergence action against LOLRI in %
In short: as §2

[6] = test system: Pharbitis purpurea (PHBPU); assay: as above; details: Ipomoea purpurea, 504 h, read-out: Post-emergence action against PHBPU in %; for pest or weed control at 5 g/ha: dosage 5 g/ha; for pest or weed control at 20 g/ha: dosage 20 g/ha
In short: as §2

[7] = test system: Amaranthus retroflexus (AMARE); assay: as above; details: Amaranthus retroflexus, 504 h, rated visually after about 3 weeks vs untreated controls, 100% = plants have died; for pest or weed control at 1.25 g/ha: read-out: Post-emergence action at 1.25 g/ha against AMARE in %; for pest or weed control at 5 g/ha: read-out: Post-emergence action at 5 g/ha against AMARE in %; for pest or weed control at 20 g/ha: read-out: Post-emergence action at 20 g/ha against AMARE in %
In short: as §2

Veronica persica (VERPE) = assay: as above; details: Veronica persica, 504 h, read-out: Post-emergence action against VERPE
In short: as §2

Oryza sativa (ORYSA) = assay: Post-emergence crop plant compatibility, greenhouse pot test (also comparative test C); details: for Post-emergence action against ORYSA (crop plant compatibility): vs untreated controls
In short: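 Visual damage versus untreated plants (0% = like control, 100% = plants died) was scored about 3 weeks after a post-emergence spray in greenhouse pots. Treatment: one-leaf stage, WP or EC in water at 600 l/ha with 0.5% additive; a/b/c mark different dosages on the same crop.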

[8] = test system: Triticum aestivum (TRZAS); assay: Post-emergence crop plant compatibility, greenhouse pot test; details: vs untreated controls
In short: (§3)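 Greenhouse pot test; post-emergence foliar spray at one-leaf stage, WP or EC in water + 0.5% additive, 600 l/ha. Visual rating after ~3 wk, % relative to untreated (0–100%).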

Zea mays (ZEAMX) = assay: as above; details: 1.25 g/ha, vs untreated controls
In short: as §3

Glycine max (GLXMA) = assay: as above; details: 1.25 g/ha
In short: as §3

Row | SMILES | pest or weed control at 5 g/ha [1] [%] | pest or weed control at 20 g/ha [1] [%] | pest or weed control at 5 g/ha [2] [%] | pest or weed control at 20 g/ha [2] [%] | pest or weed control at 20 g/ha (Setaria viridis (SETVI)) [%] | pest or weed control at 1.25 g/ha (Setaria viridis (SETVI)) [%] | pest or weed control at 5 g/ha (Setaria viridis (SETVI)) [%] | pest or weed control at 5 g/ha [3] [%] | pest or weed control at 20 g/ha [3] [%] | pest or weed control at 20 g/ha (Avena fatua (AVEFA)) [%] | pest or weed control at 5 g/ha [4] [%] | pest or weed control at 20 g/ha [4] [%] | pest or weed control at 1.25 g/ha (Viola tricolor (VIOTR)) [%] | pest or weed control at 5 g/ha (Viola tricolor (VIOTR)) [%] | pest or weed control at 20 g/ha (Viola tricolor (VIOTR)) [%] | pest or weed control at 1.25 g/ha [5] [%] | pest or weed control at 5 g/ha [5] [%] | pest or weed control at 20 g/ha [5] [%] | pest or weed control at 20 g/ha (Lolium rigidum (LOLRI)) [%] | pest or weed control at 5 g/ha [6] [%] | also measured
1 | COCCOC(=O)COc1ccccc1Oc1cc(-n2c(=O)cc(C(F)(F)F)n(C)c2=O)c(F)cc1[N+](=O)[O-] [I.6-1, 2-Methoxyethyl (2-{4-fluoro-5-[3-methyl-2,6-dioxo-4-(trifluoromethyl)-3,6-dihydropyrimidin-1(2H)-yl]-2-nitrophenoxy}phenoxy)acetate] | 80 | 100 | 100 | 100 | 100 | 100 | 100 | 90 | 100 | 100 | 100 | 100 | 100 | 100 | 100 | 100 | 100 | 100 | 80 | 100 | Post-emergence action at 1.25 g/ha against ECHCG in % ([3]; 1.25 g/ha, rated visually after about 3 weeks vs untreated controls, 100% = plants have died): 90%; pest or weed control at 20 g/ha [6]: 100%; pest or weed control at 1.25 g/ha [7]: 100%; pest or weed control at 5 g/ha [7]: 100%; pest or weed control at 20 g/ha [7]: 100%; pest or weed control at 5 g/ha (Veronica persica (VERPE)): 100%; pest or weed control at 20 g/ha (Veronica persica (VERPE)): 100%; Post-emergence action against ORYSA (crop plant compatibility) (Oryza sativa (ORYSA); 1.25 g/ha): 0%; Post-emergence action against ORYSA (crop plant compatibility) (Oryza sativa (ORYSA); 5 g/ha): 10%; Post-emergence action against ORYSA in % (Oryza sativa (ORYSA); 20 g/ha, crop plant compatibility): 20%; Post-emergence action against TRZAS (crop plant compatibility) ([8]; 1.25 g/ha): 10%; Post-emergence action against TRZAS (crop plant compatibility) ([8]; 5 g/ha): 20%; Post-emergence action against ZEAMX (crop plant compatibility) (Zea mays (ZEAMX)): 20%; Post-emergence action against GLXMA in % (Glycine max (GLXMA)): 20%
2 | CC(C#N)OC(=O)COc1ccccc1Oc1cc(-n2c(=O)cc(C(F)(F)F)n(C)c2=O)c(F)cc1Cl (stereo not drawn) [I.7-177, 1-Cyanoethyl (2-{2-chloro-4-fluoro-5-[3-methyl-2,6-dioxo-4-(trifluoromethyl)-3,6-dihydropyrimidin-1(2H)-yl]phenoxy}phenoxy)acetate] | 90 | 100 | 80 | 80 | 100 | 100 | 100 | 100 | 100 | 80 | 80 | 100 | 100 | 100 | 100 | 100 | 100 | 100 | 80 | 100 | pest or weed control at 1.25 g/ha ([2]; dosage 1.25 g/ha): 80%; pest or weed control at 1.25 g/ha ([6]; dosage 1.25 g/ha): 90%; pest or weed control at 20 g/ha [6]: 100%; pest or weed control at 1.25 g/ha [7]: 100%; pest or weed control at 5 g/ha [7]: 100%; pest or weed control at 20 g/ha [7]: 100%; pest or weed control at 1.25 g/ha (Veronica persica (VERPE); 1.25 g/ha): 90%; pest or weed control at 5 g/ha (Veronica persica (VERPE)): 100%; pest or weed control at 20 g/ha (Veronica persica (VERPE)): 100%; Post-emergence action against ORYSA (crop plant compatibility) (Oryza sativa (ORYSA); 1.25 g/ha): 0%; Post-emergence action against TRZAS (crop plant compatibility) ([8]; 1.25 g/ha): 0%; Post-emergence action against GLXMA in % (Glycine max (GLXMA)): 0%
